Five compounds from patent US10584122B2, “Solid forms of a compound modulating kinases” (Plexxikon Inc., priority 2015, dated 2020) can be followed below.

Where two headings read alike, the source gives them in different places.

The nature of series [1]: Dynamic vapor sorption/desorption (DVS). The class given is physicochemical. To be noted: for Solid form after DVS, by XRPD: after sorption/desorption; for DVS weight loss upon equilibration: equilibration at 5% RH. The source says:
Moisture sorption/desorption data were collected on a VTI SGA-100 Vapor Sorption Analyzer under a nitrogen purge. […] Data were not corrected for the initial moisture content of the samples. Sodium chloride and polyvinypyrrolidine were used as calibration standards.

Series [2] in a line: Slurry experiment, form conversion by XRPD. The class given is physicochemical. To be noted: slurried in ethanol for 21 days. Here is the method: Solutions were prepared by adding enough solids to a given solvent so that excess solids were present. The mixture was then agitated in a sealed vial at either ambient or a set temperature.
Series [3] is described as follows: Physical stability, stress experiments (temperature/RH) with XRPD. The class given is physicochemical. To be noted: for Physical stability (overall finding): at the conditions investigated, HCl salt.
The nature of a further series: physchem. To be noted: water, thermodynamic from solid.

What is called solubility is how much of the substance goes into solution per volume. Lower therefore signals a poorly soluble substance. As for `Cl.FC(F)(F)c1ccc(CNc2ccc(Cc3c[nH]c4ncc(Cl)cc34)cn2)cn1` [Compound I Form A, [5-(5-chloro-1H-pyrrolo[2,3-b]pyridin-3-ylmethyl)-pyridin-2-yl]-(6-trifluoromethyl-pyridin-3-ylmethyl)-amine HCl salt], the “DVS additional weight gain, sorption step” value in series [1] (above 75% RH) was 1.7%. In addition, in series [1] (listed as Form A, HCl salt), the “Solid form after DVS, by XRPD” value is listed as “Form A”. For the same compound, the “DVS weight gain, sorption step” value in series [1] (from 5% to 75% RH) was determined as 0.6%. Further, the “Hygroscopicity (DVS isotherm)” value in series [1] (listed as Form A, HCl salt) was “hygroscopic”. For the same compound, in series [2], the “Form conversion on slurry” value was “complete conversion to Form C”. The “XRPD Result (solid form after stress)” value is given as “A + C” in series [3] (40° C./75% RH/14 d), “converted to Form C” in series [3] (80° C./7 d (<<100 mg)) and “A + minor C” in series [3] (RT/85% RH/14 d). Further, the “Physical stability (overall finding)” value in series [3] (listed as Form A) is “physically metastable”. The “Form conversion on exposure to elevated humidity” value in series [3] (elevated humidity) is “partial conversion to Form C”. In addition, the solubility in “physchem” was less than 2 mg/mL.

`Cl.FC(F)(F)c1ccc(CNc2ccc(Cc3c[nH]c4ncc(Cl)cc34)cn2)cn1` [Compound I Form B, [5-(5-chloro-1H-pyrrolo[2,3-b]pyridin-3-ylmethyl)-pyridin-2-yl]-(6-trifluoromethyl-pyridin-3-ylmethyl)-amine HCl salt]: the “Form conversion on heating” value in series [3] (about 150° C. for about 5 minutes) was “Desolvation/conversion to Form C”.

As to `Cl.FC(F)(F)c1ccc(CNc2ccc(Cc3c[nH]c4ncc(Cl)cc34)cn2)cn1` [Compound I Form C, [5-(5-chloro-1H-pyrrolo[2,3-b]pyridin-3-ylmethyl)-pyridin-2-yl]-(6-trifluoromethyl-pyridin-3-ylmethyl)-amine HCl salt], in series [1] (listed as Form C, HCl salt), the “Solid form after DVS, by XRPD” value is recorded as “remained unchanged” and the “Hygroscopicity (DVS isotherm)” value is reported as “less hygroscopic than Form A”. Also, the “DVS weight gain, sorption step” value in series [1] (from 5% to 95% RH) is 0.96%. In addition, the “Physical stability (overall finding)” value in series [3] (listed as Form C) is reported as “more physically stable than Form A”.

For `CO.Cl.FC(F)(F)c1ccc(CNc2ccc(Cc3c[nH]c4ncc(Cl)cc34)cn2)cn1` [Compound I Form D, [5-(5-chloro-1H-pyrrolo[2,3-b]pyridin-3-ylmethyl)-pyridin-2-yl]-(6-trifluoromethyl-pyridin-3-ylmethyl)-amine HCl salt methanol solvate], the “DVS weight loss, desorption phase” value in series [1] (desorption phase) amounted to 0.9%. In series [1], the “DVS weight loss upon equilibration” value was “approximately 5.3%”. Further, the “DVS weight gain, sorption phase” value in series [1] (sorption phase) came to 0.9%. The “Form conversion on heating” value in series [3] (80° C. for 15 minutes) is recorded as “desolvated to Form A”; in series [3] (continued exposure to 80° C. for 2 days) it was “converted to Form C”.

For `FC(F)(F)c1ccc(CNc2ccc(Cc3c[nH]c4ncc(Cl)cc34)cn2)cn1` [Compound II, [5-(5-chloro-1H-pyrrolo[2,3-b]pyridin-3-ylmethyl)-pyridin-2-yl]-(6-trifluoromethyl-pyridin-3-ylmethyl)-amine], in series [1], the “Hygroscopicity (DVS isotherm)” value is “hygroscopic” and the “DVS weight loss upon equilibration” value is listed as 0.3-0.4%. This compound came in with a DVS weight gained in series [1] (from 45% to 95% RH) of approximately 21.6%.
